{
  "source": "patent US20240287147A1",
  "about": "“PD-L1 BINDING PEPTIDES AND PEPTIDE COMPLEXES AND METHODS OF USE THEREOF” (Fred Hutchinson Cancer Center, priority 2020, published 2024)",
  "system": "PC3 tumors",
  "conditions": "PC3, second cohort, T cells + 1 nmol or 0.1 nmol",
  "data": [
    {"substance": "durvalumab", "values": [
      {"measurement": "effect on PC3 flank tumors", "result": "no effect"}
    ]}
  ]
}
